Assay results published in US9457019B2, “Methods for inhibiting tie-2 kinase useful in the treatment of cancer” (Deciphera Pharmaceuticals, LLC, priority 2013, dated 2016).

Columns and labels:
[1] = tested on: PyMT syngeneic breast cancer implant mouse model; assay: PyMT syngeneic breast cancer model lung metastasis evaluation, Compound 1 dosed intermittently with paclitaxel; assay type: in vivo; conditions: Compound 1 oral twice weekly, paclitaxel IV every five days, 12 days
Method: (§1) PyMT Syngeneic Breast Cancer Model Lung Metastasis Evaluation
(§2) Briefly, 1×10^6 cells (dissociated from PyMT tumor fragments and stored frozen in cell-freezing medium) in 0.1 mL total volume were implanted into the fourth mammary fat pad on the left side of female mice (FVB/NJ, JAXWEST:RB05 mice from Jackson Labs). A total of three mice were implanted in each group. Molecular Imaging, Inc.'s Animal Care and Use Committee approved all the experimental protocols and conducted experiments in compliance with all the laws, regulations and guidelines of the National Institutes of Health (NIH). […] Animals were dosed for 12 days. Body weights and tumor measurements were recorded three times weekly.
(§3) At the end of study, lung tissues were excised and placed in formalin. Formalin-fixed lung samples were then placed in paraffin blocks. Each lung block had three slides with two levels per slide cut and stained with Hematoxylin and Eosin. Metastatic lung nodules were counted via microscopy.

[2] = tested on: PyMT syngeneic breast cancer implant mouse model; assay: PyMT syngeneic breast cancer model primary tumor TIE2 cell accumulation (TIE2 staining); assay type: in vivo; conditions: Compound 1 oral twice daily, paclitaxel IV every five days, 21 days
Method: (§4) Briefly, 1×10^6 cells (dissociated from PyMT tumor fragments) in 0.1 mL total volume were implanted into the fourth mammary fat pad on the left side of female mice (FVB/NJ, JAXWEST:RB05 mice from Jackson Labs). A total of 10 mice were implanted in each group. […] Animals were dosed for 21 days. Body weights and tumor measurements were recorded three times weekly.
At the end of study, tumors were excised and placed in formalin. Formalin-fixed tumor samples were then placed in paraffin blocks. The experimental formalin fixed-paraffin embedded tissue slides were deparaffinized with xylene and hydrated to distilled water through a graduated series of alcohol rinses. Antigenic retrieval was performed using Dako's PT Link Module with a Citrate pH 6 buffer target retrieval solution at 95° C. for 20 minutes. Once the slides cooled down, they were loaded onto a Dako AutostainerPlusLink for immunohistochemical staining at room temperature with both TIE2 and CD31 antibodies. Endogenous peroxidase and alkaline phosphatase activity in the tissues was quenched with a Dual Endogenous Enzyme Block solution (Dako, S2003) for 5 minutes. Non-specific protein binding was blocked with serum free Protein Block (Dako, X0909) for 5 minutes. […] Slides were scored for TIE2 staining using a scale of 0, no visible staining; 1, weak staining; 2, moderate staining; 3 strong staining.

[3] = tested on: PyMT syngeneic breast cancer implant mouse model; assay: PyMT syngeneic breast cancer model primary tumor macrophage accumulation (F4/80 staining); assay type: in vivo; conditions: Compound 1 oral twice daily, paclitaxel IV every five days, 21 days
Method: PyMT Syngeneic Breast Cancer Model Primary Tumor Macrophage Accumulation
as §4
At the end of study, tumors were excised and placed in formalin. Formalin-fixed tumor samples were then placed in paraffin blocks. Formalin fixed-paraffin embedded tissue slides were deparaffinized with xylene and hydrated to distilled water through a graduated series of alcohol rinses. Antigenic retrieval was performed using Dako's PT Link Module with a Tris/EDTA buffer target retrieval solution at 95° C. for 20 minutes. Once the slides cooled down, they were loaded onto a Dako AutostainerPlusLink for immunohistochemical staining at room temperature with F4/80 and CD31 antibodies, to stain for macrophages and endothelial cells, respectively. Endogenous peroxidase and alkaline phosphatase activity in the tissues was quenched with a Dual Endogenous Enzyme Block solution (Dako, S2003) for 5 minutes. […] Slides were scored for F4/80 staining using a scale of 0, no visible staining; 1, weak staining; 2, moderate staining; 3 strong staining.

[4] = tested on: PyMT syngeneic breast cancer implant mouse model; assay: PyMT syngeneic breast cancer model primary tumor growth; assay type: in vivo; conditions: Compound 1 oral twice daily, paclitaxel IV every five days, 21 days
Method: PyMT Syngeneic Breast Cancer Model Primary Tumor Growth
as §2, with “tumor fragments)” for “tumor fragments and stored frozen in cell-freezing medium)”, “of 10” for “of three”, “for 21” for “for 12”, “weekly. Tumor burden (mg) was estimated from caliper measurements by the formula for the volume of a prolate ellipsoid assuming unit density as: Tumor burden (mg)=(L×W^2)/2, where L and W are the respective orthogonal tumor length and width measurements (mm).” for “weekly.”

[5] = target: T1, TIE2 (Homo sapiens, UniProt Q02763); assay: TIE2-transfected CHO K1 phospho-TIE2 Western blot composition washout assay; assay type: cell-based; conditions: incubated 2 hours at 0.1 μM-1 μM prior to being washed out
T1 construct: V5; expressed in transfected cells; host or cells: CHO-K1 (ATCC CCL-61), transient transfection with Lipofectamine LTX
T1 sequence (Q02763 23-1124): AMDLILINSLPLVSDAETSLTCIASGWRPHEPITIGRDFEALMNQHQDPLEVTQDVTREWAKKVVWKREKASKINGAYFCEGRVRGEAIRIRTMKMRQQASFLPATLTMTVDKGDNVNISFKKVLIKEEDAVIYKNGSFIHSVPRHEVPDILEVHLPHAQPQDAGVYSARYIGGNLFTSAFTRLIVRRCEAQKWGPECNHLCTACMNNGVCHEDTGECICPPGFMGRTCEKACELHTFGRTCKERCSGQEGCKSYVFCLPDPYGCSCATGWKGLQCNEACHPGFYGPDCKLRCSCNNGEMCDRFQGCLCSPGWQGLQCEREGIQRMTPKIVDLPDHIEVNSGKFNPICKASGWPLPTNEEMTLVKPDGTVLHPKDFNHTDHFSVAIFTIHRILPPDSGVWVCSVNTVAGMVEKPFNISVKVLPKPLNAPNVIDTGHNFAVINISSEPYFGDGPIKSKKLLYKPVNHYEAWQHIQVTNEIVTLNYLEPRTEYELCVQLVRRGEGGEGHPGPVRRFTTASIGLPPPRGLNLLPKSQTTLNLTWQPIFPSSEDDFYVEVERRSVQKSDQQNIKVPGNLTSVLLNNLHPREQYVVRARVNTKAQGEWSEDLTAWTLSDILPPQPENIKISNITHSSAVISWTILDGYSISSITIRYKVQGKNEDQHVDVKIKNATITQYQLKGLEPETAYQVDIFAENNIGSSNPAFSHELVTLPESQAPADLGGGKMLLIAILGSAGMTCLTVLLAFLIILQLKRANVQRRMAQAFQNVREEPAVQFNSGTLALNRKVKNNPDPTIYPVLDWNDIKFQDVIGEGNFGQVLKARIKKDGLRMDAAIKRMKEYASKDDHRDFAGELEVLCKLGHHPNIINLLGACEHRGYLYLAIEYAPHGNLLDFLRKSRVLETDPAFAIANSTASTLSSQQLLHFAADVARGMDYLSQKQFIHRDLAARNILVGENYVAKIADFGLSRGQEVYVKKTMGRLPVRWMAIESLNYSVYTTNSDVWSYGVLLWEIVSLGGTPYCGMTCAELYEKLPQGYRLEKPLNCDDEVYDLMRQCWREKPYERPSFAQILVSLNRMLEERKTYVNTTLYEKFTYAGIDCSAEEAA
Method: CHO-K1 cells (catalog #CCL-61) were obtained from the American Type Culture Collection (ATCC, Manassas, Va.). Briefly, cells were grown in F12K medium supplemented with 10% characterized fetal bovine serum (Invitrogen, Carlsbad, Calif.), 100 units/mL penicillin G, 100 μg/ml streptomycin, and 0.29 mg/mL L-glutamine (Invitrogen, Carlsbad, Calif.) at 37 degrees Celsius, 5% CO2, and 95% humidity. Cells were allowed to expand until reaching 70-95% confluence at which point they were subcultured or harvested for assay use.
TIE2-Transfected CHO K1 Phospho-TIE2 Western Blot Composition Washout Assay
CHO K1 cells (1×10^5 cells/well) were added to a 24-well tissue-culture treated plate in 1 mL of RPMI1640 medium supplemented with 10% characterized fetal bovine serum and 1× non-essential amino acids (Invitrogen, Carlsbad, Calif.). Cells were then incubated overnight at 37 degrees Celsius, 5% CO2, and 95% humidity. Medium was aspirated, and 0.5 mL of medium was added to each well. […] Fluorescence was detected using a Storm 840 phosphorimager (GE Healthcare, Piscataway, N.J.) in fluorescence mode. […] The 160 kDa phospho-TIE2 and total TIE2 bands were quantified using ImageQuant software (GE Healthcare, Piscataway, N.J.). […]

[6] = tested on: HMVEC capillary tube formation; assay: HMVEC capillary tube formation assay; assay type: cell-based; conditions: Homo sapiens, ANG1-stimulated, 18 hours, read-out: IC50 value for inhibition of ANG1-stimulated HMVEC capillary tube formation
Method: HMVEC (Human microvascular endothelial cells; Catalog #PCS-110-010) cells were obtained from the American Type Culture Collection (ATCC, Manassas, Va.). Briefly, cells were grown in EGM-2 MV (Lonza, Walkersville, Md.) at 37 degrees Celsius, 5% CO2, and 95% humidity. Cells were allowed to expand until reaching 90-95% saturation at which point they were subcultured or harvested for assay use.
HMVEC Capillary Tube Formation Assay
HMVEC cells (1.5×10^4 cells/well) mixed with test composition or DMSO control and the appropriate growth factor (ANG1 or ANG2) or control were added to a 96-well tissue-culture treated plate coated with growth-factor reduced Matrigel in 0.1 mL of EBM-2 basal medium (Lonza, Walkersville, Md.). Cells were then incubated for 18 hours at 37 degrees Celsius, 5% CO2, and 95% humidity. Media was then gently aspirated and wells were gently washed with 0.1 mL EBM-2 basal medium. Media was again aspirated and 1 μM Calcein AM solution (Invitrogen, Carlsbad, Calif.) in basal medium was added to each well to fluorescently label live cells. Cells were then incubated for 30 minutes at 37 degrees Celsius, 5% CO2, and 95% humidity. Media was aspirated and wells were gently washed with phosphate-buffered saline twice. […] Data was analyzed using Prism software (GraphPad Software, San Diego, Calif.) to calculate IC50 values.

[7] = tested on: PyMT syngeneic breast cancer implant mouse model; assay: PyMT syngeneic breast cancer model lung metastasis evaluation, Compound 1 dosed intermittently with eribulin; assay type: in vivo; conditions: Compound 1 oral twice weekly, eribulin IV three times weekly, 12 days
Method: as §1, §2, §3

[8] = tested on: PyMT syngeneic breast cancer implant mouse model; assay: PyMT syngeneic breast cancer model survival evaluation; assay type: in vivo; conditions: Compound 1 oral once or twice weekly, eribulin at 0.1 mg/kg IV three times weekly; tumors resected three days after treatment began
Method: PyMT Syngeneic Breast Cancer Model Survival Evaluation
Briefly, 1×10^6 cells (dissociated from PyMT tumor fragments and stored frozen in cell-freezing medium) in 0.1 mL total volume were implanted into the fourth mammary fat pad on the left side of female mice (FVB/NJ, JAXWEST:RB05 mice from Jackson Labs). A total of ten mice were implanted in each group. Molecular Imaging, Inc.'s Animal Care and Use Committee approved all the experimental protocols and conducted experiments in compliance with all the laws, regulations and guidelines of the National Institutes of Health (NIH). […] Tumors were then resected three days after treatment began. Animals were then dosed for the duration of the survival experiment. Body weights and tumor measurements were recorded three times weekly.

SMILES	lung metastasis (metastatic lung nodules), FIG. 5 [1]	TIE2-expressing cell accumulation at the primary tumor (TIE2 staining), FIG. 3 [2]	macrophage accumulation at the primary tumor (F4/80 staining), FIG. 2 [3]	primary tumor growth (tumor burden), FIG. 1 [4]	duration of >50% inhibition of phospho-TIE2 levels after washout [5] [h]	inhibition of phospho-TIE2 levels after washout ([5]; maintained for >24 hours) [%]	IC50 [6] [nM]	lung metastasis (metastatic lung nodules), FIG. 6 [7]	survival, FIG. 7 [8]
CC(=O)O[C@H]1C(=O)[C@@]2(C)[C@H]([C@H](OC(=O)c3ccccc3)[C@]3(O)C[C@H](OC(=O)[C@H](O)[C@@H](NC(=O)c4ccccc4)c4ccccc4)C(C)=C1C3(C)C)[C@]1(OC(C)=O)CO[C@@H]1C[C@@H]2O [paclitaxel, reference compound]	decrease in lung metastasis	did not decrease TIE2-expressing cell accumulation	did not decrease macrophage accumulation	tumor growth inhibition	–	–	–	–	–
CNC(=O)c1cc(Oc2ccc(NC(=O)Nc3cc(C(C)(C)C)nn3-c3ccc4ncccc4c3)c(F)c2)ccn1.Cc1ccc(S(=O)(=O)O)cc1 [Compound 1, 1-(3-tert-butyl-1-(quinolin-6-yl)-1H-pyrazol-5-yl)-3-(2-fluoro-4-(2-(methylcarbamoyl)pyridin-4-yloxy)phenyl)urea para-toluene sulfonic acid salt]	–	decrease in TIE2-expressing cell accumulation	decrease in macrophage accumulation	tumor growth inhibition	> 24	> 50	6.9	–	–
C=C1C[C@@H]2CC[C@@]34C[C@H]5O[C@H]6[C@@H](O3)[C@H]3O[C@H](CC[C@@H]3O[C@H]6[C@H]5O4)CC(=O)C[C@@H]3[C@@H](OC)[C@@H](C[C@H](O)CN)O[C@H]3C[C@H]3O[C@@H](CC[C@@H]1O2)C[C@@H](C)C3=C [eribulin]	–	–	–	–	–	–	–	decrease (or increase at low dose) in lung metastasis	no increase in survival
